Data published in PMC8617031, “Development of a BCL-xL and BCL-2 dual degrader with improved anti-leukemic activity,” (Nature Communications, 2021).

System: BCL-xL/PROTAC/VCB ternary complex (HiBit-BCL-xL, HaloTag-VHL)
Assay: NanoBRET intracellular ternary complex formation in 293T cells, BCL-xL
Format: cell-based, human
Settings: NanoBRET, 293T cells, 6 h
Method in brief: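 293T cells were transfected with HiBit-BCL-xL or HiBit-BCL-2 plus HaloTag-VHL and incubated overnight with or without HaloTag NanoBRET 618 ligand in 4% FBS Opti-MEM. Serially diluted compounds were applied for 6 h at 37 °C. mBRET ratio from donor emission (450/50 nm) and acceptor emission (610 nm longpass) after Nano-Glo substrate.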

Structure (SMILES)	intracellular ternary complex formation with BCL-xL (in words)
Cc1ncsc1-c1ccc([C@H](C)NC(=O)[C@@H]2C[C@@H](O)CN2C(=O)[C@@H](NC(=O)CCCCC(=O)N2CCN(CC3(C)CCC(c4ccc(Cl)cc4)=C(CN4CCN(c5ccc(C(=O)NS(=O)(=O)c6ccc(N[C@H](CCN7CCOCC7)CSc7ccccc7)c(S(=O)(=O)C(F)(F)F)c6)cc5)CC4)C3)CC2)C(C)(C)C)cc1 (stereo partly shown) [PPC6]	stronger BCL-xL/PROTAC/VHL-EloC-EloB (VCB) ternary complexes
Cc1ncsc1-c1ccc([C@H](C)NC(=O)[C@@H]2C[C@@H](O)CN2C(=O)[C@@H](NC(=O)CCCCCC(=O)N2CCN(CC3(C)CCC(c4ccc(Cl)cc4)=C(CN4CCN(c5ccc(C(=O)NS(=O)(=O)c6ccc(N[C@H](CCN7CCOCC7)CSc7ccccc7)c(S(=O)(=O)C(F)(F)F)c6)cc5)CC4)C3)CC2)C(C)(C)C)cc1 (stereo partly shown) [PPC7]	stronger BCL-xL/PROTAC/VHL-EloC-EloB (VCB) ternary complexes
Cc1ncsc1-c1ccc([C@H](C)NC(=O)[C@@H]2C[C@@H](O)CN2C(=O)[C@@H](NC(=O)CCCCCCC(=O)N2CCN(CC3(C)CCC(c4ccc(Cl)cc4)=C(CN4CCN(c5ccc(C(=O)NS(=O)(=O)c6ccc(N[C@H](CCN7CCOCC7)CSc7ccccc7)c(S(=O)(=O)C(F)(F)F)c6)cc5)CC4)C3)CC2)C(C)(C)C)cc1 (stereo partly shown) [PPC8]	stronger BCL-xL/PROTAC/VHL-EloC-EloB (VCB) ternary complexes
Cc1ncsc1-c1ccc([C@H](C)NC(=O)[C@@H]2C[C@@H](O)CN2C(=O)[C@@H](NC(=O)CCCCCCCC(=O)N2CCN(CC3(C)CCC(c4ccc(Cl)cc4)=C(CN4CCN(c5ccc(C(=O)NS(=O)(=O)c6ccc(N[C@H](CCN7CCOCC7)CSc7ccccc7)c(S(=O)(=O)C(F)(F)F)c6)cc5)CC4)C3)CC2)C(C)(C)C)cc1 (stereo partly shown) [PPC9]	stronger BCL-xL/PROTAC/VHL-EloC-EloB (VCB) ternary complexes
